From article PMC7958448, “Bepridil is potent against SARS-CoV-2 in vitro” (Proceedings of the National Academy of Sciences of the …, 2021)
Read-outs that look alike come from different tables or passages of the source.

Assays:
Ebola virus = conditions: mouse, in vivo, 12 mg/kg; cited from earlier work
[1] = system: SARS-CoV-2 in A549/ACE2 cells; assay: microbe, parasite or virus in culture; type: cell-based; conditions: Severe acute respiratory syndrome coronavirus 2, A549-ACE2, 96 h; read-out: EC50 in inhibiting SARS-CoV-2
[2] = system: SARS-CoV-2 in Vero E6 cells; assay: microbe, parasite or virus in culture; type: cell-based; conditions: Severe acute respiratory syndrome coronavirus 2, Vero C1008, 72 h; read-out: EC50 in inhibiting SARS-CoV-2
[3] = system: SARS-CoV-2 in A549/ACE2 cells; type: cell-based; conditions: 6 repeats
[4] = system: SARS-CoV-2 in Vero E6 cells; type: cell-based
[5] = molecular target: T1, SARS-CoV-2 main protease (Mpro) (Severe acute respiratory syndrome coronavirus 2, UniProt P0DTD1); conditions: 1 mM medicine, relative to control without small molecule
[6] = molecular target: T1, SARS-CoV-2 main protease (Mpro); assay: biochemical
[7] = system: SARS-CoV-2 entry into mammalian cell hosts; conditions: cell-based study; read-out: EC50 in inhibiting the SARS-CoV-2 entry; cited from earlier work

In the case of CC(C)COCC(CN(Cc1ccccc1)c1ccccc1)N1CCCC1 (centres unmarked) [Bepridil], the “protection from Ebola virus infections” value (Ebola virus) is given as 100%, the EC50 [1] is given as 460 nM and the EC50 [2] is given as 860 nM. The “SARS-CoV-2 induced CPE” value ([3]; A549/ACE2, bepridil 6.25 µM) was “No CPE”, the “SARS-CoV-2 induced CPE” value ([3]; A549/ACE2, bepridil 12.5 µM) was “No CPE” and the “SARS-CoV-2 induced CPE” value ([3]; A549/ACE2, bepridil 25 µM) was “No CPE”. The “SARS-CoV-2 induced CPE” value ([3]; A549/ACE2, bepridil 50 µM) was “No CPE”, the “SARS-CoV-2 induced CPE” value [4] was “No CPE” and the “SARS-CoV-2 induced CPE” value ([4]; Vero E6, bepridil 6.25 µM, 6 repeats) was “No CPE”. The “SARS-CoV-2 induced CPE” value ([4]; Vero E6, bepridil 25 µM, 6 repeats) was “No CPE”.
With CCN1CC(CCN2CCOCC2)C(c2ccccc2)(c2ccccc2)C1=O (centres unmarked) [Doxapram] the “activation of Mpro” value [5] was over 15%.
For Cc1cccc(C)c1OCC(=O)N[C@@H](Cc1ccccc1)[C@@H](O)C[C@H](Cc1ccccc1)NC(=O)[C@H](C(C)C)N1CCCNC1=O [Lopinavir], the IC50 ([6]; 50 nM Mpro, 10 µM Sub3, 20% DMSO, mean ± SE, triplicate) was 486000 ± 2000 nM and the Hill slope ([6]; four-parameter variable slope fit of the IC50 curve) was 29.9 ± 2.4.
In the case of Cc1c(O)cccc1C(=O)N[C@@H](CSc1ccccc1)[C@H](O)CN1C[C@H]2CCCC[C@H]2C[C@H]1C(=O)NC(C)(C)C [Nelfinavir], the EC50 [7] is given as 1000 nM.
For CN1CCN(CC(=O)N2c3ccccc3C(=O)Nc3cccnc32)CC1 [Pirenzepine], the “activation of Mpro” value [5] was over 15%.
For CCOc1ccccc1OC(c1ccccc1)C1CNCCO1 (centres unmarked) [Reboxetine], the “activation of Mpro” value [5] was over 15%.
CCOC(=O)/C=C/[C@H](C[C@@H]1CCNC1=O)NC(=O)[C@@H](CC(=O)[C@@H](NC(=O)c1cc(C)on1)C(C)C)Cc1ccc(F)cc1 [Rupintrivir] gave a Hill slope [6] of 1.4 ± 0.2.
